These are literature values, as cited in patent US20250064896A1, “METHODS, COMPOSITIONS AND USES FOR TREATING CANCER BY PROVIDING MEDICATIONS THAT INDUCE TARGETED TUMOR CELL MITOSIS BEFORE PROVIDING CHEMOTHERAPY OR RADIATION AND KITS THEREFOR” (MAISON AMORI OQVPO LLC, priority 2022, published 2025).

Like-named read-outs stand apart in the source and are kept apart here.

Data set [1] concerns metastatic hormone sensitive prostate cancer (MHSPC). The settings on record: for median actuarial freedom from Castrate Resistant Prostate Cancer (CRPC): p=0.04; for overall survival: p=0.2.
For data set [2] the following is noted: patients randomized to bicalutamide versus placebo.
Data set [3] relates to prostate cancer (salvage setting). The note with it: goserelin provided on the first day of radiation.
Data set [4] has as its system locally advanced prostate cancer.
Data set [5] shares this test system. The settings on record: goserelin 3.6 mg every 4 weeks and flutamide 250 mg tid, 2 months before and concurrent with RT.
Data set [6] has the same test system. The settings on record: for overall survival at 5 years: P=0.73.
Data set [7] concerns metastatic adenocarcinoma of the prostate.
For data set [8] the following is noted: in vivo.
The test system of data set [9] is testosterone levels. The settings on record: week 2 from initiation of leuprolide; injections once every 3 months; advanced prostate cancer.
For data set [10], the system named is testosterone levels.
Data set [11] deals with serum concentrations of LH and testosterone.
The conditions of data set [12]: in vivo. The source holds these as a separate data set.
[13] abbreviates: arm I: irradiation plus goserelin started in the last week of radiation.

On to `CC(=O)O[C@@]12CO[C@@H]1C[C@H](O)[C@@]1(C)C(=O)[C@H](O)C3=C(C)[C@@H](OC(=O)[C@H](O)[C@@H](NC(=O)OC(C)(C)C)c4ccccc4)C[C@@](O)([C@@H](OC(=O)c4ccccc4)[C@H]21)C3(C)C` [docetaxel], for which the “overall survival versus LHRH therapy alone” value in data set [1] (docetaxel given at the beginning of LHRH therapy, MHSPC) is on record as “significantly longer”. The results for the “median actuarial freedom from Castrate Resistant Prostate Cancer (CRPC)” value in data set [1] (docetaxel started 1-6 days from LHRH initiation) and in data set [1] (docetaxel started >14 days from LHRH initiation) were 51 months and 18 months, respectively. The figures for the overall survival in data set [1] (docetaxel started 1-6 days from initiation of LHRH agonist) and in data set [1] (docetaxel started >14 days from initiation of LHRH agonist) were 72 months and 57 months, respectively.
Regarding `CC(O)(CS(=O)(=O)c1ccc(F)cc1)C(=O)Nc1ccc(C#N)c(C(F)(F)F)c1` (centres unmarked) [bicalutamide], the “erectile dysfunction compared to placebo” value in [2] is “non-statistically significant difference”.
Turning to `CC(C)C[C@H](NC(=O)[C@@H](COC(C)(C)C)NC(=O)[C@H](Cc1ccc(O)cc1)NC(=O)[C@H](CO)NC(=O)[C@H](Cc1c[nH]c2ccccc12)NC(=O)[C@H](Cc1cnc[nH]1)NC(=O)[C@@H]1CCC(=O)N1)C(=O)N[C@@H](CCCNC(=N)N)C(=O)N1CCC[C@H]1C(=O)NNC(N)=O` [goserelin], the “survival, ADT in the salvage setting” value in data set [3] is reported as “survival benefit”. In the data set with prostate cancer (arm 1 versus control arm 39%, p=0.002), the “10-year absolute survival rate” value is 49%. In the data set on prostate cancer (setting [13]), the “5-year absolute survival rate” value was 72% and the “9-year absolute survival rate” value is on record as 62%. Also, the 10-year overall survival in data set [4] (combined treatment, radiotherapy alone 39.8%, p=0.0004) is 58.1%. The “survival, hormonal therapy added to radiation compared to radiation alone” value in data set [4] (external irradiation plus goserelin) was “survival benefit”. For the same molecule, in [4] (irradiation plus goserelin from first day for 3 years, antiandrogen for 1 month, radiotherapy alone 62%, p=0.0002), the five-year overall survival is 78%. For the same molecule, the “survival, combined ADT with RT versus RT alone” value in data set [5] is listed as “no significant difference”. In data set [6] (24 months of goserelin after 4 months of goserelin and flutamide with RT), the “overall survival at 5 years” value was 80.0%. Also, the “overall survival between the two treatment arms” value in data set [6] (24 months of goserelin versus no further treatment) is reported as “not significantly different”. In data set [6] (no further treatment after 4 months of goserelin and flutamide with RT), the “overall survival at 5 years” value is listed as 78.5%.
Take `C[C@]12CC[C@H]3[C@@H](CCC4=CC(=O)CC[C@@]43C)[C@@H]1CC[C@@H]2O` [testosterone]: the “patients with unfavorable subjective and/or objective responses” value in data set [7] (52 patients treated with exogenous testosterone daily) is reported as 87%. In addition, the “serious morbidity or mortality, seemingly due to the testosterone administration” value in data set [7] (eight cases of 52 patients) is 15%. Besides, the half-life in data set [8] is 170 h.
Turning to `CCNC(=O)[C@@H]1CCCN1C(=O)[C@H](CCCNC(=N)N)NC(=O)[C@H](CC(C)C)NC(=O)[C@@H](CC(C)C)NC(=O)[C@H](Cc1ccc(O)cc1)NC(=O)[C@H](CO)NC(=O)[C@H](Cc1c[nH]c2ccccc12)NC(=O)[C@H](Cc1c[nH]cn1)NC(=O)[C@@H]1CCC(=O)N1` [leuprolide], in the data set on testosterone levels [9], the “testosterone levels higher compared to baseline” value was “about 50%”. For the same molecule, the “median testosterone levels remained above castrate levels (0.5 ng/ml) until” value in the data set on testosterone levels [10] (after initiation of leuprolide) was 21 days. Besides, in the data set on testosterone levels [10] (by day 3 after initiation of monthly leuprolide, P<0.001), the “median testosterone levels increase from baseline” value is on record as 65%. Further, the median testosterone level in the data set on testosterone levels [10] (day 3 after initiation of leuprolide) is 6.30 ng/mL. Also, in [11] (after LHRH analogue application), the “duration of elevation of testosterone levels” value is listed as 7 days. Moreover, the “duration of increase in relative LH values” in data set [11] (after LHRH analogue injection) is reported as 7 days. Further, the maximum testosterone level in data set [11] (day 2 after LHRH analogue application) is reported as 145±13%. Further, in [11] (day 2 after LHRH analogue injection, means±standard error, 16 patients with advanced prostatic cancer), the “maximum relative LH value” is 345±108%. For the same molecule, the “leuprolide blood levels, intranasal versus intravenous route” value in [12] is “much lower”.
